Data reported in ChEMBL document CHEMBL1130060, “Novel prodrugs of cyanamide that inhibit aldehyde dehydrogenase in vivo” (1997).

Columns and labels:
Rattus norvegicus [1] = assay: Blood acetaldehyde level in rats following the administration of the compound.; type: functional
Rattus norvegicus [2] = assay: Blood EtOH level in rats following the administration of the compound.; type: functional
[3] = biological target: T1, Aldehyde dehydrogenase 1A1 (Rattus norvegicus) (UniProt P51647); assay: Inhibitory activity against aldehyde dehydrogenase in rats.; settings: concentration not given here
T1 sequence (whole entry): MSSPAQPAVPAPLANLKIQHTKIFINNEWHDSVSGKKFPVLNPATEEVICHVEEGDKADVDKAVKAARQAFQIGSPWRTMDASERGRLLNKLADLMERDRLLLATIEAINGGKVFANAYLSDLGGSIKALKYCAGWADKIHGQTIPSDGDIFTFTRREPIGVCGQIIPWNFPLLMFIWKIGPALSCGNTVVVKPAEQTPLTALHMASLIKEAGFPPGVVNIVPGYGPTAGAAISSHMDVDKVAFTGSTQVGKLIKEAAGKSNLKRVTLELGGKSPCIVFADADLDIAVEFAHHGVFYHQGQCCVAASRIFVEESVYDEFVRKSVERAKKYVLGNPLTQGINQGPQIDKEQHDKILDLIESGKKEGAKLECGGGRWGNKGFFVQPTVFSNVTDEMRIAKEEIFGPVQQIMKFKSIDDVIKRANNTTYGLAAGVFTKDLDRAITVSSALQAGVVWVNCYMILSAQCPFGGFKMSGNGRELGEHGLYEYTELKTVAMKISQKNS

CC(=O)NCCSC(=N)N
Potency (Rattus norvegicus [1]): 0.067 mM
Potency (Rattus norvegicus [2]): 50.1 mM

CCCCSC(=N)N
inhibition [3]: 82%

CC(C)CSC(=N)N
inhibition [3]: 66%

C=CCSC(=N)N
inhibition [3]: 88%
